{
  "source": "patent US20090136968A1",
  "about": "“Novel in vitro methods for studying receptors recognizing volatile compounds” (Chemcom S. A., priority 2005, published 2009)",
  "key": {"mOR-I7 [1]": {"biological_target": "T1, mOR-I7 (Mus musculus, UniProt Q9QWU6)", "T1 construct": "expressed in transfected cells; host or cells: HEK 293T", "T1 sequence (Q9QWU6 1-327)": "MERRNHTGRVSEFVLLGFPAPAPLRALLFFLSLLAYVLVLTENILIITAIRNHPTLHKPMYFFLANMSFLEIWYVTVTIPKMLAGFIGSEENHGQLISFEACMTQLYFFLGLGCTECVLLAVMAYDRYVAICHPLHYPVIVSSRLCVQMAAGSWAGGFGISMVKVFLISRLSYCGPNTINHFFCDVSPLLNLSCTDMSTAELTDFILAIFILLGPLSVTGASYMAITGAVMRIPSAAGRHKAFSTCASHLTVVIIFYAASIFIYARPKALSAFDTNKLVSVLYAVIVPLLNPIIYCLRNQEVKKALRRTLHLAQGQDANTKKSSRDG", "experiment": "cAMP level immunoassay (TROPIX) in the novel assay on HEK 293T overexpressing mOR-I7", "type": "cell-based", "settings": "BSA solution incubated with 16 μl of 1 M odorant; 20 minutes incubation", "method": "Similarly to the first step of the fluorescence-based functional assay described above, BP solutions including SA, OBP and/or olfactory mucus (see concentration in the text) were incubated in the presence of odorant in a sealed flask for 16 hours at 4° C. (FIG. 3A). Such odorant-BP complexes were then applied to cultured-cell for 20 minutes at 37° C. cAMP level was then measured using the Tropix kit according to the manufacturer procedures (Applied Biosystem).\nAs depicted in FIG. 1, binding of odorant molecule to olfactory receptor triggers a cascade of molecular events. In the most commonly accepted pathway, the first second messenger is cAMP synthesized by adenylate cyclase type III. Therefore, a mean to test olfactory receptor activation is to assess variation of cellular cAMP pool after olfactory receptor activation. It is noteworthy that such assay could be performed in parallel to calcium flux assay described above to validate hits obtained during a screening.\nSpecificity of the novel cell based olfactory functional assay according to the present invention was tested following mOR-I7 activation after injection of these three odorants and two non related odorant, vanilline and piperonyl isobutyrate. Olfactory receptor activation was detected by cellular cAMP pool immunoassay. A solution of BSA was incubated overnight at 4° C.\nAs discussed above (FIG. 1), activation of olfactory receptor can also be followed through cAMP synthesis. […] Results are expressed as percent of response observed after incubation with 100 μM forskolin, an activator of adenylate cyclases. […] Scheme of the odorant molecules are depicted in FIG. 7E."}, "mOR-I7 [2]": {"biological_target": "T1, mOR-I7", "experiment": "Novel olfactory functional assay (CCBSA), microplate calcium flux (Fluo4, FDSS) on HEK 293T overexpressing mOR-I7", "type": "cell-based", "settings": "for hit / potential ligand of mOR-I7 in screening of 30 odorants: carrier fraction 4 (bOBP and BSA) incubated with 16 μl of 1M odorant, ratio mOR-I7 on Wt, standardized to 1 mM ATP; for hits / potential ligands of mOR-I7 through the 4 screenings / ligands of mOR-I7 in two independent calcium flux screenings of 30 odorants: BSA as carrier; for hits / potential ligands of mOR-I7 through the 4 screenings: calcium flux and cAMP screenings together; for ligands of mOR-I7 in two independent calcium flux screenings of 30 odorants: standardized to 100 μM ATP", "method": "(§1) A solution of BP including SA, OBP and/or olfactory mucus (see concentration in the text) was incubated in the presence of odorant in a sealed flask for 16 hours at 4° C. (FIG. 3A). Such incubated-BP solution was then used as tested complex on olfactory receptor-expressing cells. Prior to incubation with such complex, cells were incubated for 1 hour with 4 μM Fluo4-AM (Molecular Probe) in the presence of 1 mM probenecid, and then rinsed twice with Fluo4-AM free HBSS buffer. After injection of odorant-BP complex on OR expressing cells, calcium flux was followed by measuring fluorescence at 520 nm ([…]) on FDSS, a plate reader from Hamamatsu Photonics K.K. (Japan) at 25° C.\nIn an attempt to be closer to physiological process of olfaction and thereof to increase specificity and sensitivity of the cell-based assay described above, a novel olfactory functional assay was developed. Most of the time, mammalian smells volatile odorant molecules. However in the cell-based assay described above as in most cell-based assays, odorant molecules were injected into aqueous buffer. Such injection may lead to formation of micelles that can alter efficacy and specificity of ligands. Therefore a cell-based assay was developed focusing an a better solubilization of odorants. In summary, in a sealed flask, bovine olfactory mucus was incubated in the presence of an odorant (FIG. 3A). It was hereby tested if an odorant would be trapped and solubilized in that fluid. Thereafter, such solubilized odorant was injected onto cultured-cells overexpressing an olfactory receptor. Activation of this receptor could then be followed by conventional assay including fluorescent (FIGS. 3 B and C) and luminescent calcium assays.\nFor this novel assay, mOR-I7 activation was assessed by octanal. A constant volume of olfactory mucus was incubated in the presence of increasing amount of octanal ranging from 0 to 16 μl of a solution of 1M octanal. After 16 hours incubation at 4° C., bovine olfactory mucus was injected on HEK 293T overexpressing mOR-I7. Calcium flux was followed with Fluo4 on FDSS, a plate reader from Hamamatsu Photonics K.K. (Japan).\nCapacity of fraction 4 to fulfil the role of odorant solubilizator was assessed in the newly proposed assay. Screening of 30 odorant molecules (FIG. 5A) was performed on HEK 293T wild type (FIG. 5C) or overexpressing mOR-I7 (FIG. 5B). Fraction 4 was incubated overnight at 4° C. […] These odorants led to at least one fold more activation of HEK 293T overexpressing mOR-I7 than the wild type counterpart. They can be classified into two groups. One group (FIG. 5 E (a) to (e)) gathers molecules that fit the olfactophore 1 depicted in FIG. 5 E (j). They are schematically made of 2 electronegative poles distanced by 6 carbons. They all contain a 6-8 carbon chain ended by an electronegative group as depicted by olfactophore 2 represented in FIG. 5 E (k).\nHowever this fraction 4 contained two major proteins, bOBP and BSA. Thus the results of said Example could in this approach not rule out any implication of BSA into fraction 4 properties. Therefore the capacity of BSA to solubilize and thereof to enhance the efficacy of odorants in the novel cell based olfactory functional assay as described by the present invention has been tested. To be as close as possible to BSA concentration observed in fraction 4. BSA concentration was set up at 5×10^−6 M for the following experiments (marked by an arrow on FIG. 6 G). Fraction 4 and a solution of fatty acid-free BSA were incubated at 4° C. for 16 hours in the presence of increasing volume of 1M octanal. So-incubated solutions were then applied onto HEK 293T wt or overexpressing mOR-I7. Calcium-flux was followed on a plate reader (Hamamatsu Photonics K.K., Japan) with fluo4 as fluorescent dye (FIG. 6 A to F). […] Such phenomenon is usually observed in such fluorescence assay when increasing ligand concentrations are injected. […]"}, "mOR-I7 [3]": {"biological_target": "T1, mOR-I7", "settings": "literature (references); cited from earlier work"}, "hORL-424": {"test_system": "hORL-424", "experiment": "Fluorescent calcium flux assay on HEK 293T overexpressing hORL-424, odorant in assay buffer with or without bovine olfactory mucus", "type": "cell-based, human", "method": "FIG. 2: Bovine olfactory mucus enhances hORL-424 activation by citronellal. (A and B) Calcium measurement was performed after activation of hORL-424 with citronellal in the presence of different amount of bovine olfactory mucus. 0 to 10 μl of mucus (0 to 10 μg of total protein) have been added to assay buffer. Calcium flux has been followed on FDSS (Hamamatsu Photonics K.K. plate reader, Japan) using Fluo4 as fluorescent dye. Histograms represent fluorescent signal observed in the presence or in the absence of 10 μl of bovine olfactory mucus. (C) Concentration response curve of HEK 293T overexpressing hORL-424 treated with citronellal. Gray boxes represent values obtained in the presence of bovine olfactory mucus. Calcium flux measurements have been performed on FDSS (Hamamatsu Photonics K.K. plate reader, Japan). (D and E) Traces obtained during single cell calcium imaging after addition of 500 μM octanal on HEK 293T overexpressing mOR-I7 in the absence (D) or in the presence of 10 μl of bovine olfactory mucus (E). Fura2 was used as fluorescent dye. Results are expressed as F340/F380 ratiometric measurement.\nas §1\nhORL-424, a human olfactory receptor, was overexpressed in HEK 293T, a […] (Hunter). […]"}},
  "data": [
    {"smiles": "COc1cc(C=O)ccc1O", "note": "[Vanilline]", "values": [
      {"measurement": "mOR-I7 activation by cellular cAMP pool", "setting": "mOR-I7 [1]", "result": "did not lead to cAMP synthesis"}
    ]},
    {"smiles": "COCCc1ccc(O)cc1", "note": "[4(2-methoxyethyl)phenol]", "values": [
      {"measurement": "hit / potential ligand of mOR-I7 in screening of 30 odorants", "setting": "mOR-I7 [2]", "result": "potential ligands of mOR-I7"},
      {"measurement": "hit / potential ligand of mOR-I7 in screening of 30 odorants", "setting": "mOR-I7 [2]; listed as 4-(2-methoxyethyl)-phenol", "result": "hits"}
    ]},
    {"smiles": "CCCCCCC=O", "note": "[heptanal]", "values": [
      {"measurement": "known activation of mOR-I7", "setting": "mOR-I7 [3]", "result": "activated specifically"},
      {"measurement": "hits / potential ligands of mOR-I7 through the 4 screenings", "setting": "mOR-I7 [2]", "result": "hits"},
      {"measurement": "ligands of mOR-I7 in two independent calcium flux screenings of 30 odorants", "setting": "mOR-I7 [2]", "result": "consistent"},
      {"measurement": "mOR-I7 activation by cellular cAMP pool", "setting": "mOR-I7 [1]", "result": "mOR-I7 ligands"}
    ]},
    {"smiles": "CCCCCCCCO", "note": "[octanol]", "values": [
      {"measurement": "hits / potential ligands of mOR-I7 through the 4 screenings", "setting": "mOR-I7 [2]", "result": "hits"},
      {"measurement": "ligands of mOR-I7 in two independent calcium flux screenings of 30 odorants", "setting": "mOR-I7 [2]", "result": "consistent"},
      {"measurement": "hit / potential ligand of mOR-I7 in screening of 30 odorants", "setting": "mOR-I7 [2]", "result": "potential ligands of mOR-I7"},
      {"measurement": "hit / potential ligand of mOR-I7 in screening of 30 odorants", "setting": "mOR-I7 [2]; listed as 1-octanol", "result": "hits"}
    ]},
    {"smiles": "CC(C)C(=O)OCc1ccc2c(c1)OCO2", "note": "[piperonyl isobutyrate]", "values": [
      {"measurement": "mOR-I7 activation by cellular cAMP pool", "setting": "mOR-I7 [1]", "result": "did not lead to cAMP synthesis"}
    ]},
    {"smiles": "CCCCCCCO", "note": "[heptanol]", "values": [
      {"measurement": "hits / potential ligands of mOR-I7 through the 4 screenings", "setting": "mOR-I7 [2]", "result": "hits"},
      {"measurement": "ligands of mOR-I7 in two independent calcium flux screenings of 30 odorants", "setting": "mOR-I7 [2]", "result": "consistent"},
      {"measurement": "hit / potential ligand of mOR-I7 in screening of 30 odorants", "setting": "mOR-I7 [2]", "result": "potential ligands of mOR-I7"},
      {"measurement": "hit / potential ligand of mOR-I7 in screening of 30 odorants", "setting": "mOR-I7 [2]; listed as 1-heptanol", "result": "hits"}
    ]},
    {"smiles": "CC/C=C\\CCCCC=O", "note": "[cis-6-nonenal]", "values": [
      {"measurement": "hit / potential ligand of mOR-I7 in screening of 30 odorants", "setting": "mOR-I7 [2]", "result": "potential ligands of mOR-I7"},
      {"measurement": "hit / potential ligand of mOR-I7 in screening of 30 odorants", "setting": "mOR-I7 [2]; listed as 6-cis-nonenal", "result": "hits"}
    ]},
    {"smiles": "CCCCC(=O)C(C)=O", "note": "[2,3 heptanedione]", "values": [
      {"measurement": "hits / potential ligands of mOR-I7 through the 4 screenings", "setting": "mOR-I7 [2]", "result": "hits"},
      {"measurement": "ligands of mOR-I7 in two independent calcium flux screenings of 30 odorants", "setting": "mOR-I7 [2]", "result": "consistent"},
      {"measurement": "hit / potential ligand of mOR-I7 in screening of 30 odorants", "setting": "mOR-I7 [2]", "result": "potential ligands of mOR-I7 and hits"}
    ]},
    {"smiles": "CC(C)=CCCC(C)CCO", "note": "(stereo not shown) [citronellol]", "values": [
      {"measurement": "ligands of mOR-I7 in two independent calcium flux screenings of 30 odorants", "setting": "mOR-I7 [2]", "result": "consistent"},
      {"measurement": "hit / potential ligand of mOR-I7 in screening of 30 odorants", "setting": "mOR-I7 [2]", "result": "potential ligands of mOR-I7 and hits"}
    ]},
    {"smiles": "COc1cc(CCC(C)=O)ccc1O", "note": "[Vanillyl acetone]", "values": [
      {"measurement": "hit / potential ligand of mOR-I7 in screening of 30 odorants", "setting": "mOR-I7 [2]", "result": "potential ligands of mOR-I7 and hits"}
    ]},
    {"smiles": "CC(C)=CCCC(C)CC=O", "note": "(stereo not shown) [citronellal]", "values": [
      {"measurement": "improvement of hORL-424 activation on addition of bovine olfactory mucus", "setting": "hORL-424; bovine olfactory mucus in assay buffer vs absence, fluo4, 96-well plate", "result": "approximately 9 folds"},
      {"measurement": "concentration necessary to reach maximum activation of hORL-424", "setting": "hORL-424; conventional assay, no mucus", "result": "up to 10 mM"},
      {"measurement": "concentration sufficient to reach maximum activation of hORL-424", "setting": "hORL-424; olfactory mucus added in the assay buffer", "result": 0.5, "unit": "mM"},
      {"measurement": "known activation of mOR-I7", "setting": "mOR-I7 [3]", "result": "activated specifically"},
      {"measurement": "hits / potential ligands of mOR-I7 through the 4 screenings", "setting": "mOR-I7 [2]", "result": "hits"},
      {"measurement": "hit / potential ligand of mOR-I7 in screening of 30 odorants", "setting": "mOR-I7 [2]", "result": "potential ligands of mOR-I7 and hits"},
      {"measurement": "mOR-I7 activation by cellular cAMP pool", "setting": "mOR-I7 [1]", "result": "mOR-I7 ligands"}
    ]}
  ]
}
